Measurements taken from patent publication US8609644B2, “Amino derivatives of androstanes and androstenes as medicaments for cardiovascular disorders” (priority 2006, dated 2013).
Structures can show the parent of a compound that is named as a salt. Where two headings read alike, the source gives them in different places.

Experiments:
[1] = tested on: anesthetized guinea-pig; assay: Inotropic effect and lethal dose, slow intravenous infusion (over 90 minutes) in anesthetized guinea-pig; conditions: for ED80 / ED (max) / Emax: Cavia porcellus, iv, 1.5 h; for ED80: read-out: ED80 (inotropic potency, dose increasing +dP/dTmax by 80%); for ED (max): read-out: EDmax (dose inducing maximum positive inotropic effect); for Emax: read-out: Emax % increase in +dP/dTmax; for % decrease from Emax after 20 min from the end of the infusion: duration of the inotropic effect; for Maximum dose infused: maximum dose infused in the survived animals; for Dead/treated / Emax % increase in +dP/dTmax / ED80 (inotropic potency, dose increasing +dP/dTmax by 80%) / EDmax (dose inducing maximum positive inotropic effect): slow i.v. infusion over 90 minutes; for Lethal dose/ED80 (safety ratio): calculated in the died animals; for Emax % increase in +dP/dTmax: maximum increase in contractile force
[2] = target: Na+, K+-ATPase (Canis lupus familiaris, UniProt P50997); assay: biochemical; parameters: species or system dog
[3] = tested on: fresh rat hepatocytes; assay: Metabolism in fresh rat hepatocytes; conditions: for % of compound metabolized after 60 minutes: fresh rat hepatocytes, test item nominal concentration 45 μM
[4] = dog kidney enzyme, read-out: Na+, K+-ATPase Inhibition IC50
[5] = read-out: Na+, K+-ATPase Inhibition IC50

| Structure (SMILES) | ED80 [1] [µmol/kg] | ED (max) [1] [µmol/kg] | Emax [1] [%] | % decrease from Emax after 20 min from the end of the infusion [1] [%] | Maximum dose infused [1] [µmol/kg] | Dead/treated [1] | IC50 [2, 4] [nM] | IC50 ([2]; Na+, K+-ATPase Inhibition IC50) [nM] | % of compound metabolized after 60 minutes [3] [%] | Lethal dose/ED80 (safety ratio) [1] | metabolism in fresh rat hepatocytes (in words) ([3]; within 60 minutes) | Emax % increase in +dP/dTmax [1] [%] | ED80 (inotropic potency, dose increasing +dP/dTmax by 80%) [1] [µmol/kg] | EDmax (dose inducing maximum positive inotropic effect) [1] [µmol/kg] | IC50 [2, 5] [nM] |
| --- | --- | --- | --- | --- | --- | --- | --- | --- | --- | --- | --- | --- | --- | --- | --- |
| CON=C1CC2C3CCC(=O)C3(C)CCC2C2(C)CCC(=NOCCN)CC12 (mixture of isomers) [I-aw, (E,Z)-3-(2-Aminoethoxyimino)-6-(E)-methoxyiminoandrostan-17-one hydrochloride] | 2.35 | 5.77 | 183 | 100 | 12.7 | 0/5 | 17 | – | – | – | – | – | – | – | – |
| C#C[C@H]1C[C@@H]2[C@H](CC[C@]3(C)C(=O)CC[C@@H]23)[C@@]2(C)CCC(=NOCCN)C[C@H]12 (mixture of isomers) [I-bd, (E,Z) 3-(2-Aminoethoxyimino)-6α-ethynylandrostan-17-one hydrochloride] | 4.59 | 9.89 | 163 | 16 | 12.8 | 0/3 | – | 200 | – | – | – | – | – | – | – |
| CO/N=C1\C[C@H]2[C@@H]3CCC(=O)[C@@]3(C)CC[C@@H]2[C@@]2(C)CCC(=NOCCN)C[C@]12O (mixture of isomers) [I-bp, (E,Z)-3-(2-Aminoethoxyimino)-5α-hydroxy-6-(E)-methoxyiminoandrostane-17-one fumarate] | – | – | – | – | – | – | – | 40 | 32 | – | – | – | – | – | – |
| C=C1C[C@H]2[C@@H]3CCC(=O)[C@@]3(C)CC[C@@H]2[C@@]2(C)CCC(=NOCCN)C[C@]12O (mixture of isomers) [I-bq, (E,Z) 3-(2-Aminoethoxyimino)-5α-hydroxy-6-methylenandrostane-17-one hydrochloride] | 5.87 | 15.7 | 173 | 10 | 25.3 | 0/3 | – | 99 | – | – | – | – | – | – | – |
| CC12CCC3C(C(=O)CC4CC(=NOCCN)CCC43C)C1CCC2=O (mixture of isomers) [I-br, (E,Z) 3-(2-Aminoethoxyimino)androstane-7,17-dione fumarate] | 1.62 | 13.5 | 264 | 100 | 50.4 | 2/5 | – | 210 | – | 32.4 | – | – | – | – | – |
| CC12CCC3C(C(=NO)CC4CC(=NOCCN)CCC43C)C1CCC2=O (mixture of isomers) [I-bs, (E,Z)-3-(2-Aminoethoxyimino)-7-(E)-hydroxyiminoandrostane-17-one fumarate] | – | – | – | – | – | – | – | – | 15 | – | – | – | – | – | – |
| CNCCCON=C1CC[C@@]2(C)[C@H](C1)[C@@H](CO)C[C@@H]1[C@@H]2CC[C@]2(C)C(=O)CC[C@@H]12 (mixture of isomers) [I-cl, (E,Z) 3-(3-N-Methylaminopropoxyimino)-6α-hydroxymethylandrostan-17-one hydrochloride] | 1.54 | 8.95 | 263 | – | 42.5 | 2/2 | 690 | – | – | 27.6 | – | – | – | – | – |
| CNCCCON=C1CCC2(C)C(C1)C(NC=O)CC1C3CCC(=O)C3(C)CCC12 (mixture of isomers) [I-co, (E,Z) 3-(3-N-Methylaminopropoxyimino)-6α-formamidoandrostan-17-one hydrochloride] | 0.93 | 2.79 | 177 | – | 44.1 | 2/2 | 1100 | – | – | 47.4 | – | – | – | – | – |
| CC12CCC3C(C(O)C(CO)C4CC(=NOCCN)CCC43C)C1CCC2=O (mixture of isomers) [I-ej, (E,Z) 3-(2-Aminoethoxyimino)-6α-hydroxymethyl-7α-hydroxyandrostane-17-one hydrochloride] | 0.34 | 7.55 | 258 | – | 25.0 | 3/3 | 22 | – | 5 | 50 | – | – | – | – | – |
| C[C@]12CCC(=NOCCN)CC1C(=O)C[C@@H]1[C@@H]2CC[C@]2(C)C(=O)CC[C@@H]12.Cl (mixture of isomers) [compd 22b, (EZ) 3-(2-aminoethoxyimino)androstane-6,17-dione hydrochloride, reference compound] | 1.82 | 5.74 | 182 | 100 | 32.1 | 7/8 | – | – | 95 | 22.6 | almost completely metabolized | – | – | – | – |
| CC12CCC3C(CC(CO)C4CC(=NOCCN)CCC43C)C1CCC2=O (single isomer, unassigned) [I-ao, (E,Z) 3-(2-Aminoethoxyimino)-6α-hydroxymethylandrostan-17-one hydrochloride] | 1.8 | 7.37 | 166 | 100 | 12.6 | 0/3 | 180 | – | – | – | – | – | – | – | – |
| CC1CC2C3CCC(=O)C3(C)CCC2C2(C)CCC(=NOCCN)CC12 (single isomer, unassigned) [I-ba, (E,Z) 3-(2-Aminoethoxyimino)-6α-methylandrostan-17-one hydrochloride] | 3.09 | 5.78 | 203 | 100 | 6.3 | 0/3 | – | 300 | – | – | – | – | – | – | – |
| C=C1C[C@@H]2[C@H](CC[C@]3(C)C(=O)CC[C@@H]23)[C@@]2(C)CC/C(=N\OCCN)CC12.Cl (some centres unmarked) [I-ai, (E) 3-(2-Aminoethoxyimino)-6-methyleneandrostan-17-one hydrochloride] | 1.2 | 2.99 | 235 | 100 | 3.2 | 0/5 | – | 84 | 27 | – | – | – | – | – | – |
| C[C@]12CCC(=NOCCN)CC1[C@@H](NC=O)C[C@@H]1[C@@H]2CC[C@]2(C)C(=O)CC[C@@H]12.O=C(O)/C=C/C(=O)O (stereo partly drawn) [I-be, (E,Z) 3-(2-Aminoethoxyimino)-6α-formamidoandrostan-17-one fumarate] | – | – | – | 37 | 50.4 | 1/5 | – | – | 16 | 32.8 | – | 174 | 1.99 | 27.4 | 160 |
| C[C@]12CC[C@H]3[C@@H](C/C(=N\O)[C@@]4(O)CC(=NOCCN)CC[C@]34C)[C@@H]1CCC2=O.O=C(O)/C=C/C(=O)O [I-bo, (E,Z)-3-(2-Aminoethoxyimino)-5α-hydroxy-6-(E)-hydroxyiminoandrostane-17-one fumarate] | – | – | – | 82 | 12.5 | 0/3 | – | – | – | – | – | 214 | 1.30 | 4.86 | 79 |
| CNCCCON=C1CC[C@@]2(C)C(C1)C(=NOC)C[C@@H]1[C@@H]2CC[C@]2(C)C(=O)CC[C@@H]12.Cl (some centres unmarked) [I-ci, (E,Z) 3-(3-N-Methylaminopropoxyimino)-6-(E)-methoxyiminoandrostan-17-one hydrochloride] | – | – | – | – | – | – | – | – | 41 | – | – | – | – | – | 330 |
| C[C@]12CC[C@@H](/C=C\CCCN)CC1/C(=N/O)C[C@@H]1[C@@H]2CC[C@]2(C)C(=O)CC[C@@H]12.O=C(O)/C=C/C(=O)O (stereo partly drawn) [I-dg, 3α-(5-Aminopent-1-(Z)-enyl)-6-(E)-hydroxyiminoandrostan-17-one fumarate] | – | – | – | 29 | 12.9 | 0/3 | – | – | – | – | – | 105 | 8.62 | 11.4 | 390 |
| C[C@]12CC[C@H]3[C@@H](CC[C@@]4(O)C[C@H](/C=C\CCCN)CC[C@]34C)[C@@H]1CCC2=O [I-dk, 3α-(5-Aminopent-1-(Z)-enyl)-5α-hydroxyandrostane-17-one fumarate] | – | – | – | – | – | – | 690 | – | 12 | – | – | – | – | – | – |
| C[C@]12CC[C@H](OC(=O)CCN)CC1/C(=N/O)C[C@@H]1[C@@H]2CC[C@]2(C)C(=O)CC[C@@H]12.Cl (stereo partly drawn) [I-dm, 3β-(3-Aminopropionyloxy)-6-(E)-hydroxyiminoandrostan-17-one hydrochloride] | – | – | – | – | – | – | – | – | 71 | – | – | – | – | – | – |
